Tested on: ergosterol pathway
Test: DNA microarray transcript profiling of clotrimazole-treated yeast

Q: With Clc1ccccc1C(c1ccccc1)(c1ccccc1)n1ccnc1 [Clotrimazole, clotrimazole] as the compound, how does the “YPL272C expression in response to drug treatment (titration plot, FIG. 13)” value (clotrimazole titration) read?
A: Its value is “induced to a high level”.

Q: What about the “number of genes upregulated by treatment” value (wild-type strain R174, YPD, 30° C., 12 hours, 0.03, 0.1, 1.0, and 3.0 ug/ml) of the same compound?
A: Its value is ~500.

From patent US20030211475A1, “Methods for identifying pathway-specific reporters and target genes, and uses thereof” (Rosetta Inpharmatics, Inc., priority 1999, published 2003)
